Assay [1] has as its target T1, Human NPY2 receptor (Homo sapiens, UniProt P49146).
T1 sequence (P49146 1-381): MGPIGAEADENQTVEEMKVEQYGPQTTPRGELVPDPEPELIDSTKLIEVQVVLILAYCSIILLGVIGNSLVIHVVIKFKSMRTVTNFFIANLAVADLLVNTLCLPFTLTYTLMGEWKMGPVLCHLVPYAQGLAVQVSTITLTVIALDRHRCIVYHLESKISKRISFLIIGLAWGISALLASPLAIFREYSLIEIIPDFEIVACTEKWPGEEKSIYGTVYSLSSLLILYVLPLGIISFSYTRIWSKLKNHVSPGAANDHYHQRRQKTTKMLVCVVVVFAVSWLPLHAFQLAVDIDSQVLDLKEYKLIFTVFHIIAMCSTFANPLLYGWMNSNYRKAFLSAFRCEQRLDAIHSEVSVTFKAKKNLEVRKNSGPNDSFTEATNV
Put plainly: Human NPY2 Receptor Binding Assay. The conditions noted are these: [125I]PYY; read-out: hPPY2 IC50.

For assay [2], the target named is T2, Human NPY5 Receptor (Homo sapiens, UniProt Q15761).
T2 sequence (Q15761 1-445): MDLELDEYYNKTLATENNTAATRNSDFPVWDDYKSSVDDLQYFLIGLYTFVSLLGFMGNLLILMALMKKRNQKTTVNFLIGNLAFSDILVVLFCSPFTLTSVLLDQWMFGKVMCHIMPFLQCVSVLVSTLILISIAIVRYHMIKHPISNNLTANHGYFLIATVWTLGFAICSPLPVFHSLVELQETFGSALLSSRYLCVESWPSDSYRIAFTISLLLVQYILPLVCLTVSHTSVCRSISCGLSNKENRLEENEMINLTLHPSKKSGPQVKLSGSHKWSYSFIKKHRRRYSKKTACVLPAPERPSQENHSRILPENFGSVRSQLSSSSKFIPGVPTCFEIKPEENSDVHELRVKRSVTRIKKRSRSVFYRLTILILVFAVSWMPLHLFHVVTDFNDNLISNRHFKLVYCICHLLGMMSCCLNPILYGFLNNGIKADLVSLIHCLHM
Nature of the assay: Human NPY5 Receptor Binding Assay. The note with it: [125I]PYY; read-out: hNPY5 IC50.
Protocol: Human and Rat NPY5 Receptor Binding Assays
Binding assays are performed on GF/C Millipore 96-well plates pretreated with 0.02% polyethylenimine. The binding buffer is 25 mM Tris, 120 mM NaCl, 5 mM KCl, 1.2 mM KH2 PO4, 2.5 mM CaCl2, 1.2 mM MgSO4, 0.1% BSA and 0.5 mg/ml bacitracin, pH 7.4. Samples consist of membrane protein, 75-100 pM [125I]PYY (porcine, NEN-DuPont) and drug dilution. Nonspecific binding is defined by 1 μM PYY. After a 2 hour incubation at room temperature with constant mixing, the samples are aspirated on a vacuum manifold, and rinsed with ice-cold binding buffer. The amount of radioactivity in each well is quantitated with either gamma counting or liquid scintillation. IC50 values, which correspond to 50% inhibition of specific binding, are determined with non-linear regression analysis.

Assay [3] concerns the target T3, Rat NPY5 Receptor (Rattus norvegicus, UniProt Q63634).
T3 sequence (Q63634 1-445): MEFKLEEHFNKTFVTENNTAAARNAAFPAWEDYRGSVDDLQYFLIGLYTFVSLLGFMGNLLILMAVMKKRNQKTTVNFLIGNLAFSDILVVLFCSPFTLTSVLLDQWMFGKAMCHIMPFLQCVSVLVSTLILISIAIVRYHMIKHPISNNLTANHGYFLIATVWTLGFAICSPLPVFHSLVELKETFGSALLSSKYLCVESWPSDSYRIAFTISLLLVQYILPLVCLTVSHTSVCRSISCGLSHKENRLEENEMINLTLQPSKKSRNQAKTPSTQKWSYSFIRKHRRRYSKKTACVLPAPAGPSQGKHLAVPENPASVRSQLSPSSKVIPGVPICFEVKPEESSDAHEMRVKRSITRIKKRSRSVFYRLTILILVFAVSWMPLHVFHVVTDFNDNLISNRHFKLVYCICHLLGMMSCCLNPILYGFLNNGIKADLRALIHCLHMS
Nature of the assay: Rat NPY5 Receptor Binding Assay. The note with it: 10 μM, values marked *; read-out: rNPY5 percent inhibition at 10 μM.

Assay [4] addresses Human NPY4/PP1 receptor (Homo sapiens, UniProt P50391). Put plainly: Human NPY4/PP1 Receptor Binding Assay. The note with it: [125I]human PP; read-out: hNPY4 IC50.

Human NPY4/PP1 receptor, sequence (P50391 whole entry): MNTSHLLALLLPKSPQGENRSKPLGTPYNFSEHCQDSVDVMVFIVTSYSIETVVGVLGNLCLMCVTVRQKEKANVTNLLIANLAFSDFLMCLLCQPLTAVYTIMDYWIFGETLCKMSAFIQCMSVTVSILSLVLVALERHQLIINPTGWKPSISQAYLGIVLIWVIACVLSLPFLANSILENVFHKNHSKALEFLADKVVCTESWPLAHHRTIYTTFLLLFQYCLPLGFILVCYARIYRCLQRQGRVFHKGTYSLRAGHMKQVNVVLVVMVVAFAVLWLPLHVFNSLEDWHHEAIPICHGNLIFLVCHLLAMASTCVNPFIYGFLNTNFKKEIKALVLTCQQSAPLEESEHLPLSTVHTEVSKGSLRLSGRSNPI

What is called IC50 is the concentration that inhibits the measured activity by half. The inhibition is the drop in the measured response relative to a control, in per cent. Consider `O=C(CSc1nc(-c2ccccc2)c(-c2ccccc2)[nH]1)Nc1ccc(C(=O)c2ccccc2)cc1` [Compound 16, N-(4-Benzoyl-phenyl)-2-(4,5-diphenyl-1H-imidazol-2-ylsulfanyl)-acetamide], for which the figures for the IC50 in assay [1] and in assay [2] were over 5 µM and 3.6 µM, respectively. Also, the inhibition at 10 µM in assay [3] was 80%.
Take `CCCCCn1c(O)nnc1SCC(=O)Nc1ccc(Cl)cc1` [Compound 181, N-(4-Chloro-phenyl)-2-(5-hydroxy-4-pentyl-4H-[1,2,4]triazo-3-ylsulfanyl)-acetamide, reference compound]: the IC50 in assay [1] is over 5 µM; in assay [4], over 5 µM; in assay [2], over 10 µM.
`Nc1nc(O)c2[nH]c(SCC(=O)Nc3ccc(C(=O)c4ccccc4)cc3)nc2n1` [Compound 14, 2-(2-Amino-hydroxy-9H-purin-ylsulfanyl)-N-(4-benzoyl-phenyl)-acetamide]: the IC50 is over 5 µM in assay [1] and over 10 µM in assay [2]. Besides, in assay [3], the inhibition at 10 µM was found to be 51%.
For `CCCCCCCCCCCc1nnc(SCC(=O)Nc2ccc(Cl)cc2)n1-c1ccccc1C(F)(F)F` [Compound 178, N-(A-Chloro-phenyl)-2-[4-(2-trifluoromethyl-phenyl)-5-undecyl-4H-[1,2,4]triazol-3-ylsulfanyl]-acetamide, reference compound], the results for the IC50 in assay [1], in assay [4] and in assay [2] were over 5 µM, over 5 µM and over 10 µM, respectively.
With `CC(C)n1c(SCC(=O)Nc2ccc(Cl)cc2)nc2cc(C(F)(F)F)ccc21` [Compound 180, N-(4-Chloro-phenyl]-2-(1-isopropyl-5-trifluoromethy-1H-benzolmidazol-2-ylsulfanyl)-acetamide, reference compound], the IC50 in assay [1] was over 5 µM; in assay [4], over 5 µM; in assay [2], over 10 µM.
In the case of `O=C(CSc1ncc[nH]1)Nc1ccc(C2CCCCC2)cc1` [Compound 136, N-(4-Cyclohexyl-phenyl)-2-(1H-imidazol-2-ylsulfanyl)-acetamide], the figures for the IC50 in assay [1] and in assay [2] were over 5 µM and 0.11 µM, respectively. In addition, the inhibition at 10 µM in assay [3] was 95%.
Taken in the same sequence, the figures for `O=C(CSc1nc2ccccc2[nH]1)Nc1ccc(C2CCCCC2)cc1` [Compound 11, 2-(1H-Benzoimidazol-2-ylsulfanyl)-N-(4-cyclohexyl-phenyl)-acetamide] were over 5 µM, 0.5 µM and 95%.
On to `O=C(CSc1ccccn1)Nc1ccc(C(=O)c2ccccc2)cc1` [Compound 44, N-(4-Benzoyl-phenyl)-2-(pyridin-2-ylsulfanyl)-acetamide], for which the results for the IC50 in assay [1] and in assay [2] were over 5 µM and 0.32 µM, respectively.
Taken in the same sequence, the figures for `O=C(CSc1ncccn1)Nc1ccc(C(=O)c2ccccc2)cc1` [Compound 49, N-(4-Benzoyl-phenyl)-2-(pyrimidin-2-ylsulfanyl)-cetarnide] were over 5 µM and 1.6 µM.
The like results for `O=C(CSc1ncnc2nc[nH]c12)Nc1ccc(C(=O)c2ccccc2)cc1` [Compound 28, N-(4-Benzoyl-phenyl)-2-(7H-purin-ylsulfanyl)-acetamide] were, in that order, over 5 µM and over 10 µM.
`CCOc1ccc2nc(SCC(=O)Nc3ccc(C(=O)c4ccccc4)cc3)sc2c1` [Compound 60]: the half-inhibitory concentration (IC50) in assay [1] is over 5 µM; in assay [2], 2.1 µM.
Taken in the same sequence, the figures for `Nc1nc(SCC(=O)Nc2ccc(C3CCCCC3)cc2)n[nH]1` [Compound 57, 2-(-Amino-2H-[1,2,4]triazol-3-ylsulfanyl)-N-(4-cyclohexyl-phenyl)-acetamide] were over 5 µM and over 1 µM.
Taken in the same sequence, the figures for `Nc1nnc(SCC(=O)Nc2ccc(C(=O)c3ccccc3)cc2)s1` [Compound 61] were over 5 µM and 0.51 µM.
The like results for `Cc1ccnc(SCC(=O)Nc2ccc(C(=O)c3ccccc3)cc2)n1` [Compound 30, N-(4-Benzoyl-phenyl)-2-(4-methyl-pyrimidin-2-ylsulfanyl)-acetamide] were, in that order, over 5 µM and 0.48 µM.
Consider `O=C(CSc1nc(-c2ccccc2)c(-c2ccccc2)[nH]1)Nc1ccc(C2CCCCC2)cc1` [Compound 15, N-(4-Cyclohexyl-phenyl)-2-(4,5-diphenyl-1H-imidazol-2-ylsulfanyl)-acetamide], for which the IC50 was over 5 µM in assay [1] and 9.8 µM in assay [2]. In assay [3], the inhibition at 10 µM was 66%.
Turning to `Cc1cc(C)nc(SCC(=O)Nc2ccc(C(=O)c3ccccc3)cc2)n1` [Compound 72, N-(4-Benzoyl-yl)-2-(4,6-dimethyl-pyrimidin-2-ylsulfanyl)-acetamide], the concentration for half-maximal inhibition (IC50) was over 5 µM in assay [1] and 8.4 µM in assay [2].
Consider `Nc1nc(O)c2[nH]c(SCC(=O)Nc3ccc(C4CCCCC4)cc3)nc2n1` [Compound 13, 2-(2-Amino-hydroxy-9H-purin-8-ylsuIfanyl)-N-(4-yclohexyl-phenyl)-acetamide], for which the IC50 is over 5 µM in assay [1] and 5.6 µM in assay [2]. Besides, the inhibition at 10 µM in assay [3] is 71%.
Consider `O=C(CSc1ccc(F)cc1)Nc1ccc(C(=O)c2ccccc2)cc1` [Compound 63, N-(4-Benzoyl-phenyl)-2-(4-fluoro-phenylsulfanyl)-acetamide], for which the results for the concentration for half-maximal inhibition (IC50) in assay [1] and in assay [2] were over 5 µM and 0.65 µM, respectively.
The like results for `O=C(CSCCO)Nc1ccc(C2CCCCC2)cc1` [Compound 33, N-(4cydohexyl-phenyl)-2-(2-hydroxy-ethylsulfanyl)-acetamide] were, in that order, over 5 µM and 0.069 µM.
Take `Cn1ccnc1SCC(=O)Nc1ccc(C(=O)c2ccccc2)cc1` [Compound 9]: the half-inhibitory concentration (IC50) in assay [1] is over 5 µM; in assay [2], 0.44 µM. The inhibition at 10 µM in assay [3] came to 93%.
Turning to `O=C(CSc1nnnn1-c1ccccc1)Nc1ccc(C(=O)c2ccccc2)cc1` [Compound 62, N-(4-Benzoyl-phenyl)-2-(1-phenyl-1H-tetrazol-5-ylsulfanyl)-acetamide], the results for the IC50 in assay [1] and in assay [2] were over 5 µM and 0.3 µM, respectively.
The like results for `O=C(CSc1ccc(O)cc1)Nc1ccc(C(=O)c2ccccc2)cc1` [Compound 65] were, in that order, over 5 µM and 0.97 µM.
The like results for `O=C(CSc1nc2ccccc2s1)Nc1ccc(C(=O)c2ccccc2)cc1` [Compound 47, 2-(Benzothiazol-2-ylsulfanyl)-N-(4-benzoyl-phenyl)-acetamide] were, in that order, over 5 µM and 3.8 µM.
The like results for `O=C(CSCC(O)CO)Nc1ccc(C2CCCCC2)cc1` (stereo not drawn) [Compound 34, N-(4-Cyclohexyl-phenyl)-2-(2,3-dihydroxy-propylsulfanyl)-acetamide] were, in that order, over 5 µM and 0.144 µM.
With `O=C(CSc1ncnc2[nH]ncc12)Nc1ccc(C(=O)c2ccccc2)cc1` [Compound 43, N-(4-Benzoyl-phenyl)-2-(1H-pyrazolo[3,4-d]pyrimidin-4-ylsulfanyl)-acetamide], the IC50 in assay [1] was over 5 µM; in assay [2], 1.3 µM.
Consider `O=C(CSc1nc2ccccc2[nH]1)Nc1ccc(C(=O)c2ccccc2)cc1` [Compound 12, 2-(1H-Benzoimidazol-2-ylsulfanyl)-N-(4-benzoyl-phenyl)-acetamide], for which the half-inhibitory concentration (IC50) was over 5 µM in assay [1] and 0.48 µM in assay [2]. In assay [3], the inhibition at 10 µM turned out to be 95%.

For the origin of these results see patent US6245817A, “NPY5 receptor antagonists and methods for using same” (Bayer Corporation, priority 1999, dated 2001).
